From ChEMBL document CHEMBL5042510, “Structure-Guided Discovery of Aminoquinazolines as Brain-Penetrant and Selective LRRK2 Inhibitors” (J Med Chem, 2022)
Values belong to the molecule of their own block, whether it stands above or below them.

Assays:
[1] = Intrinsic clearance in Wistar Han rat at 2 mg/kg, iv by LC-MS/MS analysis; format: ADME, organism-based; conditions: in vivo
[2] = tested on: Leucine-rich repeat serine/threonine-protein kinase 2 (Homo sapiens), Q5S007 [G2019S]; assay: Inhibition of LRRK2 […] mutant expressed in human SH-SY5Y cells assessed as unbound concentration required for inhibition of phosphorylation of LRRK2 at Ser935 residue incubated for 90 mins by MSD assay; format: cell-based
Leucine-rich repeat serine/threonine-protein kinase 2 (Homo sapiens), Q5S007 [G2019S], sequence (Q5S007 whole entry G2019S): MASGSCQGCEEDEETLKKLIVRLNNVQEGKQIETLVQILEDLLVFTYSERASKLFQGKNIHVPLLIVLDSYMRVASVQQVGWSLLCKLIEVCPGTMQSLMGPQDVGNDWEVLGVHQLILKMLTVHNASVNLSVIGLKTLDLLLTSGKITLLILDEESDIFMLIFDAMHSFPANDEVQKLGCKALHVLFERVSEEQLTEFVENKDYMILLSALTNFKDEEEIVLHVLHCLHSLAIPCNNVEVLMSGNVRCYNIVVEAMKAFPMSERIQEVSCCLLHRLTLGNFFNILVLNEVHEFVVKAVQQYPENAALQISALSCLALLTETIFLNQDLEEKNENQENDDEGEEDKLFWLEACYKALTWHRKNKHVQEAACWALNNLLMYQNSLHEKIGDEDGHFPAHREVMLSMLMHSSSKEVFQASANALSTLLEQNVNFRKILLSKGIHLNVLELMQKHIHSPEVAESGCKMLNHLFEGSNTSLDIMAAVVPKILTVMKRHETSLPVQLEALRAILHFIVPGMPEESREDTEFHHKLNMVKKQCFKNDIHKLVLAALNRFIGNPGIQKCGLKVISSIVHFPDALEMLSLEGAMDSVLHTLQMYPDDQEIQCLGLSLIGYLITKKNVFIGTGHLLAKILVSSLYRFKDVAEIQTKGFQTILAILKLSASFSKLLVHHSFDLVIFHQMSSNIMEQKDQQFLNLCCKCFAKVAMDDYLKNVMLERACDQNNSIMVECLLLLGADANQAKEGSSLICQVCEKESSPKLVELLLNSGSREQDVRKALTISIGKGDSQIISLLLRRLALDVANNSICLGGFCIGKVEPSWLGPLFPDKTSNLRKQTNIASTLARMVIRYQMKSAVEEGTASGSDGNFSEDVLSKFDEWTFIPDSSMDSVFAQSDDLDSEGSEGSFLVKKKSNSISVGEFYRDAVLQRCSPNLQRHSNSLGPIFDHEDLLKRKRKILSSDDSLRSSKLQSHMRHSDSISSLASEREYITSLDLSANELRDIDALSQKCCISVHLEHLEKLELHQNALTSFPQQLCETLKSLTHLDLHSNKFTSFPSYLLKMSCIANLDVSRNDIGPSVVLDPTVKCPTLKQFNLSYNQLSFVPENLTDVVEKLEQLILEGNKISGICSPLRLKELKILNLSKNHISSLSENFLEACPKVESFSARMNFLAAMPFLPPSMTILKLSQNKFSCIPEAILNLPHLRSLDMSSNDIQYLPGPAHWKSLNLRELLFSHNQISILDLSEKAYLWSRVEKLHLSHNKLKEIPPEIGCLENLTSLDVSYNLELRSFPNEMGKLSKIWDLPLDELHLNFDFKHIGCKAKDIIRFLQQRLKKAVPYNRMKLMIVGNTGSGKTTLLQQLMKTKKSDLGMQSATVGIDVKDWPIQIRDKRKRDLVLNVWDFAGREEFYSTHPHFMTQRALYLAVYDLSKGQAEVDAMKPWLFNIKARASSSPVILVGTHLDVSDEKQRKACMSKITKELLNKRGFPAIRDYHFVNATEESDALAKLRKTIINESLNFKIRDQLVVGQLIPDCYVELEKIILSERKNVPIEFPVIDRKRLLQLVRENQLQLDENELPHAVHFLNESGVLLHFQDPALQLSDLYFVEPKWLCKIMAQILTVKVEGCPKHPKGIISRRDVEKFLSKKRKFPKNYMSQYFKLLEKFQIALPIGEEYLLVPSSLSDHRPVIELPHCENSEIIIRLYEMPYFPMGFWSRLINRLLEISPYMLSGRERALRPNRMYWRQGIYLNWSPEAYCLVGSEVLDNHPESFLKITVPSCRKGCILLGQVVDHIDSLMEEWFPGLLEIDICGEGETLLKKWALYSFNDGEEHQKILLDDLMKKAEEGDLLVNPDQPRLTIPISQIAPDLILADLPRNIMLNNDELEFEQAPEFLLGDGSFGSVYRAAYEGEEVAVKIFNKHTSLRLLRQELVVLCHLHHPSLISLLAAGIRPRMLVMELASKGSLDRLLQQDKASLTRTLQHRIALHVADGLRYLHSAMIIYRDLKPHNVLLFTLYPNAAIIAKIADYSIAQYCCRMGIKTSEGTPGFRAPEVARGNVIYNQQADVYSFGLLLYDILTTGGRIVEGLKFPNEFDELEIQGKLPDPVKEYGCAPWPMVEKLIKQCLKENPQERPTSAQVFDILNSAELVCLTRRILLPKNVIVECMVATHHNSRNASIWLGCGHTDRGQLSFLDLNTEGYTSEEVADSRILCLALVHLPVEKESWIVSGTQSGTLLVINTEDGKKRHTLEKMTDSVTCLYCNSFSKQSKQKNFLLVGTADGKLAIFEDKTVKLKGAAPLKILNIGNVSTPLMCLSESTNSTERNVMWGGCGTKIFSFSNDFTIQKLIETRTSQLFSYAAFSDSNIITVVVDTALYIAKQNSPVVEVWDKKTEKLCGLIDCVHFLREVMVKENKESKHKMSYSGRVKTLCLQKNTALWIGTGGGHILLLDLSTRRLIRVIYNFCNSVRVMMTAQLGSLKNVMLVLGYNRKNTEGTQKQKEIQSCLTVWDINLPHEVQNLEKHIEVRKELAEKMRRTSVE

[3] = MRT in Wistar Han rat at 2 mg/kg, iv by LC-MS/MS analysis; format: ADME, organism-based; conditions: in vivo
[4] = Unbound brain-to-plasma concentration ratio in rat at 2.5 uM incubated for 4 hrs by equilibrium dialysis method; format: ADME, cell-free; conditions: brain and plasma (unbound), read-out: K(p,uu,brain)
[5] = Total plasma clearance in Wistar Han rat at 2 mg/kg, iv by LC-MS/MS analysis; format: ADME, organism-based
[6] = Intrinsic clearance in dog hepatocytes at 0.3 uM incubated for 90 mins by LC/MS/MS analysis; format: ADME, cell-based, Canis lupus familiaris, Hepatocyte; conditions: read-out: CLH
[7] = Oral bioavailability in Wistar Han rat at 10 mg/kg by LC-MS/MS analysis; format: ADME, organism-based; conditions: in vivo
[8] = Oral bioavailability in Beagle dog at 0.5 mg/kg by LC-MS/MS analysis; format: ADME, organism-based, Canis lupus familiaris; conditions: in vivo
[9] = target: Leucine-rich repeat serine/threonine-protein kinase 2 (Homo sapiens, UniProt Q5S007, G2019S); assay: Inhibition of recombinant N-terminal GST-fused LRRK2 […] mutant (970 to 2527 residues) (unknown origin) preincubated with enzyme for 15 mins followed by fluorescein-labeled LRRKtide peptide substrate and ATP addition for 90 mins by TR-FRET assay
Leucine-rich repeat serine/threonine-protein kinase 2, sequence (Q5S007 whole entry G2019S, the tested form may be a part): as the sequence (Q5S007 whole entry G2019S) above

Salmonella typhimurium [10] = assay: Mutagenicity in Salmonella typhimurium TA100 at 30 to 5000 ug incubated for 48 hrs in presence of liver S9 fraction by AMES test; format: toxicity, organism-based, Salmonella enterica subsp. enterica serovar Typhimurium; conditions: s9, 48 h, dose 30-5000 µg
[11] = target: Voltage-gated inwardly rectifying potassium channel KCNH2 (Homo sapiens, UniProt Q12809); assay: Inhibition of human ERG by voltage clamp assay; format: toxicity
Voltage-gated inwardly rectifying potassium channel KCNH2, sequence (Q12809 whole entry): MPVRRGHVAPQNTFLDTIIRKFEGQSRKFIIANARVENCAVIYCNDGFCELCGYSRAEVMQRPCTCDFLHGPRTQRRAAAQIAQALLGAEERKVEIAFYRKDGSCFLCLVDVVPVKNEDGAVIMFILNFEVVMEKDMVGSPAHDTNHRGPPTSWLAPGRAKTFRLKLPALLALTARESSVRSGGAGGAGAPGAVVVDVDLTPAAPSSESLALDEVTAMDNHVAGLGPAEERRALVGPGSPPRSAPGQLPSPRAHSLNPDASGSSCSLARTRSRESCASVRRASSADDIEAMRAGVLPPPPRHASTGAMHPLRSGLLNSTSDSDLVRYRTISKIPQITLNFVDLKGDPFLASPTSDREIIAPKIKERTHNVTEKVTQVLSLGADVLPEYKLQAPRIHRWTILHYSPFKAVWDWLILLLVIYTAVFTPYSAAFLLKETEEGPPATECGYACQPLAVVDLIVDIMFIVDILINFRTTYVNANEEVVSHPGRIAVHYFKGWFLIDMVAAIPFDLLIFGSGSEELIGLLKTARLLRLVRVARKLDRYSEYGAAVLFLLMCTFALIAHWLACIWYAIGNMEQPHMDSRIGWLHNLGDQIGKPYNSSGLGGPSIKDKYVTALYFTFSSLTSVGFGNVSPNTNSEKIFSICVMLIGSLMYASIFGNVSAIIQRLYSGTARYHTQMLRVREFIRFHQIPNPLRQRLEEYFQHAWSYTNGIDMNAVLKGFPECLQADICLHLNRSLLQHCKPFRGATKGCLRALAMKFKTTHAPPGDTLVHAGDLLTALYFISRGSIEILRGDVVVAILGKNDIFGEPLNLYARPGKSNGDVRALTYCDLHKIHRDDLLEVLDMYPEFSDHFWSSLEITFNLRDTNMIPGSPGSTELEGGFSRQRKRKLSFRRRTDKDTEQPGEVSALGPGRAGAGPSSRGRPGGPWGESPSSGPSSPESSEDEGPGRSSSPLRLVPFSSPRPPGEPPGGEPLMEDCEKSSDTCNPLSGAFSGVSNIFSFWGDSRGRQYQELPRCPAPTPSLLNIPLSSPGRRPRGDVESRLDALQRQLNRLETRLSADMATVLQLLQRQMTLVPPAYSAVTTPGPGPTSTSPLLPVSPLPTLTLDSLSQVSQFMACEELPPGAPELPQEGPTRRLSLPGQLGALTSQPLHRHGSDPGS

[12] = In vivo inhibition of LRRK2 in po dosed CD rat assessed as unbound concentration required for reduction in phosphorylation at Ser935 residue in striatum measured after 2 hrs by MSD assay; format: functional
mouse Bcrp = assay: Efflux ratio of apparent permeability across basolateral to apical over apical to basolateral side in mouse Bcrp-transfected dog MDCK-II cells at 0.1 to 1 uM measured after 3 hrs by LC/MS/MS analysis; format: ADME, cell-based, Canis lupus familiaris; conditions: dose 0.1-1 µM
[13] = Toxicity in rat assessed as positive heart transcriptional score at 300 mg/kg, po qd administered for 4 days; format: organism-based; conditions: in vivo, 96 h, time 4 day
[14] = target: T1, 5-hydroxytryptamine receptor 1A (Homo sapiens) (UniProt P08908); assay: Inhibition of human 5HT1A receptor at 10 uM
T1 sequence (whole entry): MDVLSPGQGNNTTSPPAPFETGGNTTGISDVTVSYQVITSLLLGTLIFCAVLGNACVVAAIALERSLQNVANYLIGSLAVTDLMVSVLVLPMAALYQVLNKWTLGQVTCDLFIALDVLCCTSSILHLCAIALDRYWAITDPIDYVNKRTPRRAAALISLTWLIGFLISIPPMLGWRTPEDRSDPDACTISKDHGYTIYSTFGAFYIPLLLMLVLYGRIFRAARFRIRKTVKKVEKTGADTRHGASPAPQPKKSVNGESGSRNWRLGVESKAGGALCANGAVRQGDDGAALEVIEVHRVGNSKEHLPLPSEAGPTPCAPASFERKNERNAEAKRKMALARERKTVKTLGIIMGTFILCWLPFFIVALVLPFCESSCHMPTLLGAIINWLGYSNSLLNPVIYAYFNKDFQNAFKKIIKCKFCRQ

[15] = Toxicity in rat assessed as drug tolerability at 25 to 300 mg/kg, po qd administered for 4 days; format: organism-based; conditions: in vivo, 96 h, dose 25-300 mg/kg, time 4 day
[16] = Toxicity in rat assessed as body weight loss at 300 mg/kg, po qd administered for 4 days; format: organism-based; conditions: in vivo, 96 h, time 4 day
Homo sapiens [17] = species on record: Homo sapiens; assay: Selectivity ratio of IC50 for AURKA (unknown origin) to IC50 for LRRK2 (unknown origin)
[18] = Total plasma clearance in Beagle dog at 0.25 mg/kg, iv by LC-MS/MS analysis; format: ADME, organism-based, Canis lupus familiaris
[19] = Intrinsic clearance in human hepatocytes at 0.3 uM incubated for 90 mins by LC/MS/MS analysis; format: ADME, cell-based, Hepatocyte; conditions: read-out: CLH
Salmonella typhimurium [20] = assay: Mutagenicity in Salmonella typhimurium TA98 at 30 to 5000 ug incubated for 48 hrs in presence of liver S9 fraction by AMES test; format: toxicity, organism-based, Salmonella enterica subsp. enterica serovar Typhimurium; conditions: s9, 48 h, dose 30-5000 µg
rat Mdr1a (P-gp) [21] = assay: Efflux ratio of apparent permeability across basolateral to apical side over apical to basolateral side in rat Mdr1a-transfected pig LLC-PK1 cells at 0.1 to 1 uM measured after 3 hrs by LC/MS/MS analysis; format: ADME, cell-based, Sus scrofa; conditions: dose 0.1-1 µM
[22] = MRT in Beagle dog at 0.25 mg/kg, iv by LC-MS/MS analysis; format: ADME, organism-based, Canis lupus familiaris; conditions: in vivo
[23] = Toxicity in rat assessed as positive liver transcriptional score at 300 mg/kg, po qd administered for 4 days; format: organism-based; conditions: in vivo, 96 h, time 4 day
Salmonella typhimurium [24] = assay: Mutagenicity in Salmonella typhimurium TA1535 at 30 to 5000 ug incubated for 48 hrs in presence of liver S9 fraction by AMES test; format: toxicity, organism-based, Salmonella enterica subsp. enterica serovar Typhimurium; conditions: s9, 48 h, dose 30-5000 µg
[25] = Toxicity in rat assessed as elevation of liver enzyme biomarker levels at 300 mg/kg, po qd administered for 4 days; format: organism-based; conditions: in vivo, 96 h, time 4 day
[26] = Intrinsic clearance in Beagle dog at 0.25 mg/kg, iv by LC-MS/MS analysis; format: ADME, organism-based, Canis lupus familiaris; conditions: in vivo
rat Mdr1a (P-gp) [27] = assay: Apparent permeability from apical to basolateral side in rat Mdr1a-transfected pig LLC-PK1 cells at 0.1 to 1 uM measured after 3 hrs by LC/MS/MS analysis; format: ADME, cell-based, Sus scrofa; conditions: dose 0.1-1 µM
Homo sapiens [28] = species on record: Homo sapiens; assay: Selectivity ratio of IC50 for PRKCZ (unknown origin) to IC50 for LRRK2 (unknown origin)
Homo sapiens [29] = species on record: Homo sapiens; assay: Selectivity ratio of IC50 for MAP3K8 (unknown origin) to IC50 for LRRK2 (unknown origin)
[30] = Intrinsic clearance in rat hepatocytes at 0.3 uM incubated for 90 mins by LC/MS/MS analysis; format: ADME, cell-based, Hepatocyte; conditions: read-out: CLH
[31] = Unbound brain-to-plasma concentration ratio in non-human primates administered orally and measured after 120 mins by LC/MS/MS analysis; format: ADME; conditions: po, read-out: K(p,uu,brain)
[32] = In vivo inhibition of LRRK2 in CD rat assessed as reduction in phosphorylation at Ser935 residue in striatum at 10 mg/kg, po measured after 2 hrs by MSD assay; format: functional
[33] = Unbound brain-to-plasma concentration ratio in CD rat 1 to 100 mg/kg, po measured after 120 mins by LC/MS/MS analysis; format: ADME, organism-based; conditions: brain and plasma (unbound), dose 1-100 mg/kg, read-out: K(p,uu,brain)

CL [1]: 175 mL/min/kg
fIC50 [2]: 58 nM
MRT [3]: 2.7 h
Kp uu at 4 h, 2.5 µM [4]: 0.3
clearance [5]: 11 mL/min/kg
CLint scaled at 0.3 µM [6]: 150 mL/min/kg
bioavailability [7]: 95%
bioavailability [8]: 85%
IC50 [9]: 0.0008 µM
efflux ratio at 3 h, up to 1 µM (mouse Bcrp): 4.2
inhibition [14]: > 50%
Ratio IC50 (Homo sapiens [17]): < 100
clearance [18]: 7 mL/min/kg
CLint scaled at 0.3 µM [19]: 132 mL/min/kg
efflux ratio at 3 h, up to 1 µM (rat Mdr1a (P-gp) [21]): 4.2
MRT [22]: 7.8 h
CL [26]: 63 mL/min/kg
Papp A→B at 3 h, up to 1 µM (rat Mdr1a (P-gp) [27]): 33 ×10⁻⁶ cm/s
Ratio IC50 (Homo sapiens [28]): < 100
Ratio IC50 (Homo sapiens [29]): < 100
CLint scaled at 0.3 µM [30]: 311 mL/min/kg
SMILES: CC(C)(O)Cn1ncc(Nc2ncc3cc(Cl)c(C4CCN(C5COC5)CC4)cc3n2)c1Cl
Activity (Salmonella typhimurium [10]): Non-Toxic
IC50 [11]: 23 µM
fIC50 [12]: 68 nM
Activity [13]: Toxic
Activity [15]: Non-Toxic
Activity [16]: 11%
Activity (Salmonella typhimurium [20]): Non-Toxic
Activity [23]: Toxic
Activity (Salmonella typhimurium [24]): Non-Toxic
Activity [25]: Toxic

Kp uu at 2 h [31]: 0.37
Kp uu at 4 h, 2.5 µM [4]: 0.49
Kp uu at 2 h [33]: 0.7
SMILES: C[C@@H]1CN(c2cc(-c3n[nH]c4ccc(OC5(C)CC5)cc34)ncn2)C[C@H](C)O1 [MLi-2]
inhibition in vivo at 10 mg/kg [32]: 93%
